The first assay deals with Endothelial lipase (EL) (Homo sapiens (Human), UniProt Q9Y5X9). The assay is described as follows: Endothelial lipase (EL) enzymatic assay with fluorescent substrate A10070 in DMPG vesicles. The assay is classed as biochemical.
Endothelial lipase (EL), sequence (Q9Y5X9 21-500): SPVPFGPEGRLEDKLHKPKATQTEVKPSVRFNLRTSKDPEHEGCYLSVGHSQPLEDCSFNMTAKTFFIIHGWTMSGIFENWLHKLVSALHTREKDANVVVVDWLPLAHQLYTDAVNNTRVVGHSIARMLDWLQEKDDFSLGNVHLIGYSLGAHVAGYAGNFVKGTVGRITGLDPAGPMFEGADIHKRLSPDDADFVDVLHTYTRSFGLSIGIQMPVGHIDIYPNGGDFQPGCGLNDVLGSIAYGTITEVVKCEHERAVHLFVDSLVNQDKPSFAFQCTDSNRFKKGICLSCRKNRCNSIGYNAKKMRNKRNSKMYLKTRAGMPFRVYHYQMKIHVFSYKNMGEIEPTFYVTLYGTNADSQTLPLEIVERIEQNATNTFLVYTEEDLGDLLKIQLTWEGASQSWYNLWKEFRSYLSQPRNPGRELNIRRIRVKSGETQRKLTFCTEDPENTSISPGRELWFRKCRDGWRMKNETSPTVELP
Settings: not given
The essentials: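 Vesicles prepared: A10070 dried with DMPG, resuspended in HEPES pH 8.0/NaCl/EDTA, sonicated on ice. Enzyme incubated with compound 30 min at 37° C. Reaction started with 1:10 diluted vesicles. Fluorescence (490/530 nm) followed 60 min; slope from 300–900 secs gives rate.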
As to `COCCS(=O)(=O)C(C(=O)NCC(=O)NCCOC(C)C)c1nc2cc(-c3cnc(C)nc3)c(F)cc2s1` (stereo not shown) [Example 356, 2-[6-fluoro-5-(2-methylpyrimidin-5-yl)-1,3-benzothiazol-2-yl]-2-(2-methoxyethane-sulfonyl)-N-({[2-(propan-2-yloxy)ethyl]carbamoyl}methyl)acetamide], the half-maximal inhibitory concentration (IC50) (commonly the concentration needed to halve the response being measured) is 55 nM. Same read-out and setting: as for `COCCS(=O)(=O)C(C(=O)NCC(=O)NCCOC(C)C)c1nc2cc(-c3ccnn3C)c(F)cc2s1` (stereo not shown) [Example 357, 2-[6-fluoro-5-(1-methyl-1H-pyrazol-5-yl)-1,3-benzothiazol-2-yl]-2-(2-methoxyethane-sulfonyl)-N-({[2-(propan-2-yloxy)ethyl]carbamoyl}methyl)acetamide], the figure is 49 nM; as for `COCCS(=O)(=O)C(C(=O)NCC(=O)NCCOC(C)C)c1nc2cc(-c3cnnc(C)c3)c(F)cc2s1` (stereo not shown) [Example 358, 2-[6-fluoro-5-(6-methylpyridazin-4-yl)-1,3-benzothiazol-2-yl]-2-(2-methoxyethane-sulfonyl)-N-({[2-(propan-2-yloxy)ethyl]carbamoyl}methyl)acetamide], 60 nM; as for `CS(=O)(=O)C(C(=O)NCC(=O)NC1CC1)c1nc2cc(-c3ccc(F)nc3)c(F)cc2s1` (stereo not shown) [Example 359, N-[(cyclopropyl-carbamoyl)methyl]-2-[6-fluoro-5-(6-fluoropyridin-3-yl)-1,3-benzothiazol-2-yl]-2-methanesulfonyl-acetamide], 7 nM. Still for that read-out and setting: as for `CC(C)OCCNC(=O)CNC(=O)C(c1nc2cc(-c3ccc(F)nc3)c(F)cc2s1)S(C)(=O)=O` (stereo not shown) [Example 360, 2-[6-fluoro-5-(6-fluoropyridin-3-yl)-1,3-benzothiazol-2-yl]-2-methanesulfonyl-N-({[2-(propan-2-yloxy)ethyl]carbamoyl}methyl)acetamide], the figure is 21 nM. On the same count and under the same terms, for `Cc1cc(-c2cc3nc(C(C(=O)NCC(=O)NC4CC4)S(C)(=O)=O)sc3cc2F)cnn1` (stereo not shown) [Example 361, N-[(cyclopropyl-carbamoyl)methyl]-2-[6-fluoro-5-(6-methylpyridazin-4-yl)-1,3-benzothiazol-2-yl]-2-methanesulfonyl-acetamide] the value was 26 nM. For `Cc1cc(-c2cc3nc(C(C(=O)NCC(=O)NCCOC(C)C)S(C)(=O)=O)sc3cc2F)cnn1` (stereo not shown) [Example 362, 2-[6-fluoro-5-(6-methylpyridazin-4-yl)-1,3-benzothiazol-2-yl]-2-methanesulfonyl-N-({[2-(propan-2-yloxy)ethyl]carbamoyl}methyl)acetamide], half-maximal inhibition (IC50) required 25 nM. Same read-out and setting: as for `COC(=O)Nc1ccc(-c2cc3nc(C(C(=O)NCC(=O)NCCOC(C)C)S(C)(=O)=O)sc3cc2F)cc1F` (stereo not shown) [Example 363, methyl N-[2-fluoro-4-(6-fluoro-2-{methanesulfonyl [({[2-(propan-2-yloxy)ethyl]carbamoyl}methyl)carbamoyl]methyl}-1,3-benzothiazol-5-yl)phenyl]carbamate], the figure is 11 nM. The same measure, in the same setting: as for `COc1cc(-c2cc3nc(C(C(=O)NCC(=O)NC4CC4)S(C)(=O)=O)sc3cc2F)ccn1` (stereo not shown) [Example 364, N-[(cyclopropyl-carbamoyl)methyl]-2-[6-fluoro-5-(2-methoxypyridin-4-yl)-1,3-benzothiazol-2-yl]-2-methanesulfonyl-acetamide], the figure is 12 nM; as for `CS(=O)(=O)C(C(=O)NCC(=O)NC1CC1)c1nc2cc(-c3ccc4c(c3)NC(=O)C4)c(F)cc2s1` (stereo not shown) [Example 365, N-[(cyclopropyl-carbamoyl)methyl]-2-[6-fluoro-5-(2-oxo-2,3-dihydro-1H-indol-6-yl)-1,3-benzothiazol-2-yl]-2-methanesulfonyl-acetamide], 36 nM; as for `COc1ccc(-c2cc3nc(C(C(=O)NCC(=O)NC4CC4)S(C)(=O)=O)sc3cc2F)cn1` (stereo not shown) [Example 366, N-[(cyclopropyl-carbamoyl)methyl]-2-[6-fluoro-5-(6-methoxypyridin-3-yl)-1,3-benzothiazol-2-yl]-2-methanesulfonyl-acetamide], 30 nM.

`CS(=O)(=O)C(C(=O)NCC(=O)NC1CC1)c1nc2cc(-c3cccnc3F)c(F)cc2s1` (stereo not shown) [Example 367, N-[(cyclopropyl-carbamoyl)methyl]-2-[6-fluoro-5-(2-fluoropyridin-3-yl)-1,3-benzothiazol-2-yl]-2-methanesulfonyl-acetamide] came in with an IC50 of 25 nM. The same measure, in the same setting: for `COc1nccc(-c2cc3nc(C(C(=O)NCC(=O)NC4CC4)S(C)(=O)=O)sc3cc2F)c1F` (stereo not shown) [Example 368, N-[(cyclopropyl-carbamoyl)methyl]-2-[6-fluoro-5-(3-fluoro-2-methoxypyridin-4-yl)-1,3-benzothiazol-2-yl]-2-methanesulfonyl-acetamide] the value was 17 nM; for `Cn1cnc2ccc(-c3cc4sc(C(C(=O)NCC(=O)NC5CC5)S(C)(=O)=O)nc4cc3F)cc21` (stereo not shown) [Example 369, N-[(cyclopropyl-carbamoyl)methyl]-2-[5-fluoro-6-(1-methyl-1H-1,3-benzodiazol-6-yl)-1,3-benzothiazol-2-yl]-2-methanesulfonyl-acetamide], 16 nM. The same measure, in the same setting: as for `CS(=O)(=O)C(C(=O)NCC(=O)NC1CC1)c1nc2cc(F)c(-c3ccc4c(c3)CC(=O)N4)cc2s1` (stereo not shown) [Example 370, N-[(cyclopropyl-carbamoyl)methyl]-2-[5-fluoro-6-(2-oxo-2,3-dihydro-1H-indol-5-yl)-1,3-benzothiazol-2-yl]-2-methanesulfonyl-acetamide], the figure is 5 nM. Still for that read-out and setting: for `CS(=O)(=O)C(C(=O)NCC(=O)NC1CC1)c1nc2cc(F)c(-c3cccc4c3CC(=O)N4)cc2s1` (stereo not shown) [Example 371, N-[(cyclopropyl-carbamoyl)methyl]-2-[5-fluoro-6-(2-oxo-2,3-dihydro-1H-indol-4-yl)-1,3-benzothiazol-2-yl]-2-methanesulfonyl-acetamide] the value was 5 nM; for `CS(=O)(=O)C(C(=O)NCC(=O)NC1CC1)c1nc2cc(F)c(-c3ccc4c(c3)NC(=O)C4)cc2s1` (stereo not shown) [Example 372, N-[(cyclopropyl-carbamoyl)methyl]-2-[5-fluoro-6-(2-oxo-2,3-dihydro-1H-indol-6-yl)-1,3-benzothiazol-2-yl]-2-methanesulfonyl-acetamide], 6 nM. On to `CS(=O)(=O)C(C(=O)NCC(=O)NC1CC1)c1nc2ccc(-c3ccc(-n4cccn4)cc3)cc2s1` (stereo not shown) [Example 373, N-[(cyclopropyl-carbamoyl)methyl]-2-methanesulfonyl-2-{6-[4-(1H-pyrazol-1-yl)phenyl]-1,3-benzothiazol-2-yl}acetamide], for which the 50% inhibitory concentration (IC50) was 2 nM. `CN1C(=O)Cc2cc(-c3cc4sc(C(C(=O)NCC(=O)NC5CC5)S(C)(=O)=O)nc4cc3F)ccc21` (stereo not shown) [Example 374, N-[(cyclopropyl-carbamoyl)methyl]-2-[5-fluoro-6-(1-methyl-2-oxo-2,3-dihydro-1H-indol-5-yl)-1,3-benzothiazol-2-yl]-2-methanesulfonyl-acetamide] registered a half-maximal inhibitory concentration (IC50) of 9 nM. On the same count and under the same terms, as for `CS(=O)(=O)C(C(=O)NCC(=O)NC1CC1)c1nc2cc(F)c(-c3ccc(-n4cccn4)cc3)cc2s1` (stereo not shown) [Example 375, N-[(cyclopropyl-carbamoyl)methyl]-2-{5-fluoro-6-[4-(1H-pyrazol-1-yl)phenyl]-1,3-benzothiazol-2-yl}-2-methanesulfonyl-acetamide], the figure is 2 nM; as for `COCCS(=O)(=O)C(C(=O)NCC(=O)NCCOCc1ccccc1)c1nc2ccc(-c3ccc(F)nc3)cc2s1` (stereo not shown) [Example 377, N-({[2-(benzyloxy)ethyl]carbamoyl}methyl)-2-[6-(6-fluoropyridin-3-yl)-1,3-benzothiazol-2-yl]-2-(2-methoxyethane-sulfonyl)acetamide], 1 nM; as for `COCCS(=O)(=O)C(C(=O)NCC(=O)NCC(F)(F)F)c1nc2ccc(-c3ccc(F)nc3)cc2s1` (stereo not shown) [Example 378, 2-[6-(6-fluoropyridin-3-yl)-1,3-benzothiazol-2-yl]-2-(2-methoxyethane-sulfonyl)-N-{[(2,2,2-trifluoroethyl)carbamoyl]methyl} acetamide], 198 nM. On the same count and under the same terms, for `COCCNC(=O)CNC(=O)C(c1nc2ccc(-c3ccc(F)nc3)cc2s1)S(=O)(=O)CCOC` (stereo not shown) [Example 379, 2-[6-(6-fluoropyridin-3-yl)-1,3-benzothiazol-2-yl]-2-(2-methoxyethane-sulfonyl)-N-{[(2-methoxyethyl)carbamoyl]methyl} acetamide] the value was 108 nM; for `COCCS(=O)(=O)C(C(=O)NCC(=O)NCCOc1ccccc1)c1nc2ccc(-c3ccc(F)nc3)cc2s1` (stereo not shown) [Example 380, 2-[6-(6-fluoropyridin-3-yl)-1,3-benzothiazol-2-yl]-2-(2-methoxyethane-sulfonyl)-N-{[(2-phenoxyethyl)carbamoyl]methyl} acetamide], 1 nM. As to `COCCS(=O)(=O)C(C(=O)NCC(=O)NC1(C)CC1)c1nc2ccc(-c3ccc(F)nc3)cc2s1` (stereo not shown) [Example 381, 2-[6-(6-fluoropyridin-3-yl)-1,3-benzothiazol-2-yl]-2-(2-methoxyethane-sulfonyl)-N-{[(1-methylcyclopropyl)carbamoyl]methyl} acetamide], inhibition was half-maximal at 15 nM (IC50). On the same count and under the same terms, as for `COCCS(=O)(=O)C(C(=O)NCC(=O)NCC1CC1)c1nc2ccc(-c3ccc(F)nc3)cc2s1` (stereo not shown) [Example 382, N-{[(cyclopropyl-methyl)carbamoyl]methyl}-2-[6-(6-fluoropyridin-3-yl)-1,3-benzothiazol-2-yl]-2-(2-methoxyethane-sulfonyl)acetamide], the figure is 22 nM; as for `COCCS(=O)(=O)C(C(=O)NCC(=O)Nc1ccccc1)c1nc2ccc(-c3ccc(F)nc3)cc2s1` (stereo not shown) [Example 383, 2-[6-(6-fluoropyridin-3-yl)-1,3-benzothiazol-2-yl]-2-(2-methoxyethane-sulfonyl)-N-[(phenyl-carbamoyl)methyl]acetamide], 3 nM.

The assay is the same for the next values; noted with them: EL from conditioned media of HT-1080 cells; 30 min preincubation at 37° C.
In turn, `COCCS(=O)(=O)C(C(=O)NCC(=O)NC1CC1)c1nc2ccc(-c3ccc(F)nc3)cc2s1` (stereo not shown) [Example 376, N-[(Cyclopropylcarbamoyl)methyl]-2-[6-(6-fluoropyridin-3-yl)-1,3-benzothiazol-2-yl]-2-(2-methoxyethanesulfonyl)acetamide] registered an IC50 of 4 nM.

Source of the values: patent publication US10173991B2, “Sulfone amide linked benzothiazole inhibitors of endothelial lipase” (BRISTOL-MYERS SQUIBB COMPANY, priority 2014, dated 2019).
